Experimental data taken from a melting point compilation (Tetko et al.; mined from patent text by program, amines drawn as free bases though some values may be those of a salt).

SMILES | melting point
CC(C)c1nn(-c2ccc(C(F)(F)F)cn2)cc1CCCOc1nn(C2CCCCC2)cc1CC(=O)O | 116 to 117 °C
Cc1cccc(C(=O)N(NC(C)C)C(C)(C)C)c1 | 107 to 109 °C
C/C=C/[C@H](O)C[C@]1(C)CCc2c(C)c(OCc3ccccc3)c(C)c(C)c2O1 | 68 to 70 °C
CCc1nn2ccc3oc(C)cc3c2c1CCNC(C)=O | 128 to 129 °C
Cn1nc2c(oc3ccccc32)c1NC=O | 184 to 187 °C
COCn1c(-c2nc3c(OC)ccc(N4CCOCC4)c3s2)nc2ccc(N3CCC(O)CC3)nc21 | 120 to 130 °C
CC(C)NC(=O)NC[C@H](C)NC(=O)OC(C)(C)C | 101 °C
Cc1ccc(O)c(CNc2nc(NC[C@@H](C)O)nc3c2ncn3C(C)C)c1 | 160 to 161 °C
CC(C)NC1=NS(=O)(=O)c2ccc(CC(N)=O)cc2N1 | 321 to 325 °C
O=Cc1nnc2n1-c1ccc(Cl)cc1C(c1ccccc1)=NC2 | 133 to 135 °C
OCC1OC(n2c(Cl)nc3c(Cl)cc(Cl)cc32)C(O)C1O (configuration not stated) | 162 °C
CCOC(=O)c1cc2c3n(ccc-2n1)CC(C)=N3 | 201 to 203 °C
CCC(CC)c1nnc(SC)n(N)c1=O | 50 to 56 °C
CC(=O)Nc1ccccn1 | 155 to 156 °C
CC#CCOc1ccc(C(=O)NC[C@@H](C(=O)NO)N2CCCCC2)cc1 | 144 °C
CCN(CC)c1cccc(NC(=O)COC(C)=O)c1C#N | 50 to 51 °C
CCOC(=O)c1ccccc1S(N)(=O)=O | 122 to 124 °C
Cc1c(-c2ccccc2)c(N2CC[C@H](N(C)C)C2)c2oc(C(C)(C)F)nc2c1C#N | 130 to 132 °C
O=C(Nc1ccccc1)c1cccc(-c2ccnc3c(C(=O)c4cccs4)cnn23)c1 | 211 to 212 °C
O=C1NC(=O)c2c1c(-c1cc([N+](=O)[O-])ccc1O)cc1[nH]c3ccc(O)cc3c21 | > 330 °C
COC(=O)COC(=O)COc1ccc([N+](=O)[O-])cc1 | 88 to 90 °C
COC(=O)Nc1nc(C)c(C(=O)c2sc(NC(=O)OC)nc2C)s1 | 188 to 189 °C
CCOC(=O)C1CCc2[nH]c3ccccc3c2C1 (configuration not stated) | 95 to 96 °C

SMILES | melting point
C=C1CS(=O)C2C(NC(=O)COc3ccccc3)C(=O)N2C1C(=O)OCc1ccc([N+](=O)[O-])cc1 (configuration not stated) | 200 to 201 °C
C=C(C)C(=O)N1c2ccc(OC)cc2CC1C(=O)O (configuration not stated) | 108 to 111 °C
Cc1nc(N)oc1-c1cccc2ccccc12 | 187 to 189 °C
Cc1cc(C)cc(C(=O)c2c(C(C)C)c(=O)[nH]c(=O)n2C/C=C/CN=[N+]=[N-])c1 | 126 to 127 °C
Cc1cc(Nc2ccccc2C(=O)O)n(Cc2ccncc2)n1 | 235 to 238 °C
CCOc1nn(-c2ccccn2)cc1CCCOc1cccc(OC(C)(C)C(=O)O)c1 | 99 to 101 °C
CC(=O)c1cc(OCc2ccccc2)cc2c1OC(C)(C)C(=O)N2 | 148 to 150 °C
Nc1ccc(N2CCOCC2)c(C(=O)O)c1 | 307 to 308 °C
c1ccc2cc(OCCNC3CCCCC3)ccc2c1 | 89 °C
COc1ccc(NC(=O)CCCCC(=O)N(C)OC)cc1 | 89 to 90 °C
CC(C)(C)c1noc(-c2cccc(S(C)(=O)=O)n2)n1 | 165 to 167 °C
CC(C)n1cnc2c(N[C@H](CO)c3ccccc3)nc(Cl)nc21 | 150 to 152 °C
O=C(NC(=O)C(Br)CBr)Nc1ccc(Cl)cc1 (configuration not stated) | 162 to 163 °C
CCCCCCCCCCCCCCCCCCNC(=O)OCC(CNS(=O)(=O)CCCI)COC (configuration not stated) | 69 to 70 °C
CC(C)CC(C)(C(=O)NC1CCCCCCCCCCNC1=O)c1cccc(Cl)c1S (configuration not stated) | 143 to 148 °C
C#Cc1ccc2c(c1-c1cn(C3CC(O)C(COC(c4ccccc4)(c4ccc(OC)cc4)c4ccc(OC)cc4)O3)c(=O)[nH]c1=O)Cc1ccccc1-2 (configuration not stated) | 160 to 161 °C
COc1cccc(CNc2ncnc3c2sc2nc(N(C)C)c4c(c23)CC(C)(C)OC4)c1OC | 89.9 to 90.7 °C
C=CCS(=O)c1c(O)cc(C)oc1=O (configuration not stated) | 111 to 112 °C
O=C(N[C@@H](CO)c1ccccc1)c1ccco1 | 130 to 131 °C
NC(=O)c1cc2cc(F)c(F)cc2o1 | 217 °C
CCC(=O)c1cc2cc(OC)ccc2[nH]1 | 170 to 172 °C
COC(=O)Oc1c(Cl)cc(Cl)cc1[N+](=O)[O-] | 60 to 61 °C

The remaining lines, values ahead:

melting point | SMILES
116 to 117 °C | CCOCc1cc2cc(Br)ccc2oc1=Nc1ccc(C)cc1
114 to 116 °C | COc1ccc(C(=O)C=Cc2ccc(C(C)(C)C)cc2)cc1
86 to 88 °C | Cc1c(-c2ccncc2)oc2c1C(=O)CCC2(C)C
96 to 97 °C | CCOC(=O)c1ncc2[nH]c3ccc(C(C)OC)cc3c2c1C (configuration not stated)
194 to 195 °C | Cc1ncccc1OCC1(c2onc(-c3ccc(O)cc3)c2-c2ccccc2)CC1
283 °C | O=C1Nc2ccc(I)cc2C1=NNC(=O)c1cccc(Oc2ccccc2)c1
237 to 239 °C | CC(=O)c1c(-c2ccncc2)[nH]c(-c2ccnc3ccccc23)c1C
192 to 195 °C | N=C(Nc1ccc(Cl)cc1)Nc1ncccc1OCc1c(Cl)cccc1Cl
131 to 132 °C | COc1cc(CON=C(CCC(=O)O)c2ccccc2)ccc1OCc1nc(-c2ccco2)oc1C
140 to 142 °C | Cc1ccc2cccc(OCc3c(Cl)ccc(S(=O)(=O)NCc4ccccc4)c3Cl)c2n1
235 to 237 °C | COc1cc2oc(=O)c(CCN3CCN(c4ccccc4OC)CC3)c(C)c2cc1O
74 to 80 °C | OC[C@H]1CCCN1c1cc(N2CCc3ccccc3C2)c2ccccc2n1
144 to 145 °C | CS(=O)(=O)c1c(C(=O)c2cnoc2C2CC2)ccc(Br)c1F
128 to 129 °C | COc1ccc(C2=C(c3ccc(S(C)(=O)=O)cc3)CCC2)cc1F
280 °C | COc1ccc2c(c1)C(c1ccc(N)cc1)=Nn1c(nc(C)c1C)C2
160 to 162 °C | CCOC(=O)c1nc(-c2ccc(Cl)cc2Cl)n(-c2ccc(C(F)(F)F)cc2)c1C
105 to 108 °C | Cc1cc(SCc2cccc3nn(-c4ccc(C(F)(F)F)cc4)cc23)ccc1OCC(=O)O
210 to 212 °C | CCN1Cc2c(cc3ccc4c(c3c2-c2ccc3c(c2)OCO3)OCO4)C1=O
83 to 84 °C | CCOC(=O)C1CCc2cc(C(=O)c3ccccc3)c(O)cc21 (configuration not stated)
122 to 123 °C | COc1ccc2cc([C@H](C)C(=O)OCC(=O)O)ccc2c1
116 to 118 °C | COc1ccc2cc(-c3nccn3C)ccc2n1
178 to 182 °C | COc1ccccc1Oc1c(NS(=O)(=O)c2ccc3ccccc3c2)nc(N2CCOCC2)nc1OCCOc1ncc(Br)cn1
237 to 240 °C | CS(=O)(=O)c1ccc(-c2c(-c3ccc(F)cc3)c(=O)n3n2Cc2c(Cl)cccc2-3)cc1
205 to 207 °C | CC(C)Oc1cccc(NC(=O)OCc2c(-c3ccccc3)c3cc(Cl)ccc3c(=O)n2C)c1
188 to 190 °C | CS(=O)(=O)c1cc(C(=O)N=C(N)N)ccc1C1C=CCC1 (configuration not stated)
102 to 104 °C | CNC(=O)[C@@H](NC(=O)[C@@H](CC(=O)OCc1ccccc1)n1ccc(-c2ccc(C#N)cc2)c1)C(C)(C)C
135 to 136 °C | Cc1ccc(-c2ccc3c(c2)C=C(C(CN(C)C2CCOCC2)Oc2ccccc2)CCO3)cc1 (configuration not stated)
